The structures appear in SMILES notation.

The target of this assay is Protein kinase C alpha type (Homo sapiens, UniProt P17252). Put plainly: Displacement of [20-3H]-phorbol 12,13-dibutyrate (PDBU) from protein kinase C alpha with phosphatidylserine.

Compound `CCCCCCCC(=O)OCCCC1(CO)CC(=CCC(C(C)C)C(C)C)C(=O)O1` (stereo unspecified) registered a Ki of 1.43 µM.
For `CCCCCCCCC(=O)OCCC1(CO)C/C(=C\CC(C(C)C)C(C)C)C(=O)O1` (stereo unspecified), affinity was put at a Ki of 0.459 µM.
Turning to `CCCCCCCCCOC(=O)CC1(CO)C/C(=C\CC(C(C)C)C(C)C)C(=O)O1` (stereo unspecified), the affinity, expressed as Ki, was 0.0622 µM.
The compound `CCCCCCCCC(=O)OCCC1(CO)C/C(=C/CC(C(C)C)C(C)C)C(=O)O1` (stereo unspecified) displayed a Ki of 0.208 µM.
The compound `CCCCCCCC(=O)OCCCC1(CO)C/C(=C/CC(C(C)C)C(C)C)C(=O)O1` (stereo unspecified) yielded a Ki of 0.736 µM.
Consider `CCCCCCCCCOC(=O)CC1(CO)C/C(=C/CC(C(C)C)C(C)C)C(=O)O1` (stereo unspecified), for which the Ki was 0.0557 µM.

(Values after ChEMBL document CHEMBL1137081, “Conformationally constrained analogues of diacylglycerol. 20. The search for an elusive binding site on protein kinase C through relocation of the carbonyl pharmacophore along the sn-1 side chain of 1,2-diacylglycerol lactones” (J Med Chem, 2004).)
